Measurements taken from patent US9181239B2, “Pyridopyrimidinone inhibitors of kinases” (AbbVie Inc., priority 2011, dated 2015).

Each molecule was assayed against T1, Wee1 kinase (Homo sapiens, UniProt P30291) (assay: Wee1 time-resolved fluorescence equilibrium binding assay (probe displacement)). Conditions: GST-tagged-Wee1 kinase 2 nM, fluorescent probe 300 nM, 1 hour incubation; read-out: Wee-1 binding (Ki nM).
T1 construct: purchased Carnabio 05-177
T1 sequence (P30291 whole entry): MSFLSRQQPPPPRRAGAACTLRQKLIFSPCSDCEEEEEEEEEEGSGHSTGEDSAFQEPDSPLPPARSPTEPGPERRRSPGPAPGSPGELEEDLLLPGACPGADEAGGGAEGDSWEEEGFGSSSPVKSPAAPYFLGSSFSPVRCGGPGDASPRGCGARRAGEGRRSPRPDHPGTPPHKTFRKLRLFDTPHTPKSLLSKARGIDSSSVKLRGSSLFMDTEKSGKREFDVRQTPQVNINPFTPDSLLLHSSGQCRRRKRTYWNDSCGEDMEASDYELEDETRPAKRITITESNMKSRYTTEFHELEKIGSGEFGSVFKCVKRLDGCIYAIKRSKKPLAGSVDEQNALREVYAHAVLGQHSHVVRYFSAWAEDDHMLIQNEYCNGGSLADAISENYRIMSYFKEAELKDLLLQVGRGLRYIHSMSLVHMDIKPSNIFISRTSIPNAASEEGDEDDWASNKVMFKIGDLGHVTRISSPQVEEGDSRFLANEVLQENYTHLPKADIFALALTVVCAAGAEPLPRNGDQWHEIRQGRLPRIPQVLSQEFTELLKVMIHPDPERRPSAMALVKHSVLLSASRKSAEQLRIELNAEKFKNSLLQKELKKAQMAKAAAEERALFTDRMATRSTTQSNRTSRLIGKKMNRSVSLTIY
Experimental: Wee1 kinase was assayed using a time-resolved fluorescence equilibrium binding assay monitoring displacement of a rapidly reversible Oregon Green-labeled ATP-competitive kinase probe (N-(2-(2-(2-(4-(4-(5-chloro-4-(2-(1-hydroxycyclobutyl)thiazol-5-yl)-1H-pyrrolo[2,3-b]pyridin-2-yl)phenyl)piperazin-1-yl)ethoxy)ethoxy)ethyl)-2′,7′-difluoro-3′,6′-dihydroxy-3-oxo-3H-spiro[isobenzofuran-1,9′-xanthene]-5-carboxamide) by competitive Wee1 inhibitors.
With `CCn1cc(-c2c(Cl)cccc2Cl)c(=O)c2cnc(Nc3ccc(N4CCN(C)CC4)cc3)nc21` [Example 31, 6-(2,6-dichlorophenyl)-8-ethyl-2-{[4-(4-methylpiperazin-1-yl)phenyl]amino}pyrido[2,3-d]pyrimidin-5(8H)-one] the Ki was 0.6 nM. For `CCn1cc(-c2c(Cl)cccc2Cl)c(=O)c2cnc(Nc3ccc4c(c3)CN(C)CC43CC3)nc21` [Example 32, 6-(2,6-dichlorophenyl)-8-ethyl-2-[(2′-methyl-2′,3′-dihydro-1′H-spiro[cyclopropane-1,4′-isoquinolin]-7′-yl)amino]pyrido[2,3-d]pyrimidin-5(8H)-one], the Ki was 0.3 nM. `CN1CCN(c2ccc(Nc3ncc4c(=O)c(-c5c(F)cccc5Cl)cn(C)c4n3)cc2)CC1` [Example 33, 6-(2-chloro-6-fluorophenyl)-8-methyl-2-{[4-(4-methylpiperazin-1-yl)phenyl]amino}pyrido[2,3-d]pyrimidin-5(8H)-one] was tested, and the Ki was 1.5 nM. Work on `CN1Cc2cc(Nc3ncc4c(=O)c(-c5c(F)cccc5Cl)cn(C)c4n3)ccc2C2(CC2)C1` [Example 34, 6-(2-chloro-6-fluorophenyl)-8-methyl-2-[(2′-methyl-2′,3′-dihydro-1′H-spiro[cyclopropane-1,4′-isoquinolin]-7′-yl)amino]pyrido[2,3-d]pyrimidin-5(8H)-one] yielded a Ki of 0.4 nM. In the case of `COc1ccc(Cn2cc(-c3c(F)cccc3Cl)c(=O)c3cnc(Nc4ccc(N5CCN(C)CC5)cc4)nc32)cc1` [Example 35, 6-(2-chloro-6-fluorophenyl)-8-(4-methoxybenzyl)-2-{[4-(4-methylpiperazin-1-yl)phenyl]amino}pyrido[2,3-d]pyrimidin-5(8H)-one], the Ki is reported as 66 nM. With `COc1ccc(Cn2cc(-c3c(F)cccc3Cl)c(=O)c3cnc(Nc4ccc5c(c4)CN(C)CC54CC4)nc32)cc1` [Example 36, 6-(2-chloro-6-fluorophenyl)-8-(4-methoxybenzyl)-2-[(2′-methyl-2′,3′-dihydro-1′H-spiro[cyclopropane-1,4′-isoquinolin]-7′-yl)amino]pyrido[2,3-d]pyrimidin-5(8H)-one] the Ki was 33 nM. `CN1CCN(c2ccc(Nc3ncc4c(=O)c(-c5c(F)cccc5Cl)cn(C5CC5)c4n3)cc2)CC1` [Example 37, 6-(2-chloro-6-fluorophenyl)-8-cyclopropyl-2-{[4-(4-methylpiperazin-1-yl)phenyl]amino}pyrido[2,3-d]pyrimidin-5(8H)-one] showed a Ki of 2.4 nM. Molecule `CN1Cc2cc(Nc3ncc4c(=O)c(-c5c(F)cccc5Cl)cn(C5CC5)c4n3)ccc2C2(CC2)C1` [Example 38, 6-(2-chloro-6-fluorophenyl)-8-cyclopropyl-2-[(2′-methyl-2′,3′-dihydro-1′H-spiro[cyclopropane-1,4′-isoquinolin]-7′-yl)amino]pyrido[2,3-d]pyrimidin-5(8H)-one] has a Ki of 1.3 nM. For `CN1Cc2cc(Nc3ncc4c(=O)c(-c5c(F)cccc5Cl)c[nH]c4n3)ccc2C2(CC2)C1` [Example 39, 6-(2-chloro-6-fluorophenyl)-2-[(2′-methyl-2′,3′-dihydro-1′H-spiro[cyclopropane-1,4′-isoquinolin]-7′-yl)amino]pyrido[2,3-d]pyrimidin-5(8H)-one], the Ki was 0.7 nM. Work on `CN1CCN(c2ccc(Nc3ncc4c(=O)c(-c5c(F)cccc5Cl)c[nH]c4n3)cc2)CC1` [Example 40, 6-(2-chloro-6-fluorophenyl)-2-{[4-(4-methylpiperazin-1-yl)phenyl]amino}pyrido[2,3-d]pyrimidin-5(8H)-one] yielded a Ki of 2.4 nM. Work on `CN(C)C1Cc2ccc(Nc3ncc4c(=O)c(-c5c(Cl)cccc5Cl)c[nH]c4n3)cc2C1` (stereo not shown) [Example 41, 6-(2,6-dichlorophenyl)-2-{[2-(dimethylamino)-2,3-dihydro-1H-inden-5-yl]amino}pyrido[2,3-d]pyrimidin-5(8H)-one] yielded a Ki of 0.4 nM. Work on `CN1Cc2cc(Nc3ncc4c(=O)c(-c5c(Cl)cccc5Cl)c[nH]c4n3)ccc2C(C)(C)C1` [Example 42, 6-(2,6-dichlorophenyl)-2-[(2,4,4-trimethyl-1,2,3,4-tetrahydroisoquinolin-7-yl)amino]pyrido[2,3-d]pyrimidin-5(8H)-one] yielded a Ki of 0.2 nM. `O=c1c(-c2c(Cl)cccc2Cl)c[nH]c2nc(Nc3ccc4c(c3)CNCC43CC3)ncc12` [Example 43, 6-(2,6-dichlorophenyl)-2-(2′,3′-dihydro-1′H-spiro[cyclopropane-1,4′-isoquinolin]-7′-ylamino)pyrido[2,3-d]pyrimidin-5(8H)-one] gave a Ki of 0.3 nM. `CN(C)C1CCN(c2ccc(Nc3ncc4c(=O)c(-c5c(Cl)cccc5Cl)cn(C)c4n3)cc2)CC1` [Example 44, 6-(2,6-dichlorophenyl)-2-({4-[4-(dimethylamino)piperidin-1-yl]phenyl}amino)-8-methylpyrido[2,3-d]pyrimidin-5(8H)-one] showed a Ki of 0.5 nM. With `Cn1cc(-c2c(Cl)cccc2Cl)c(=O)c2cnc(N)nc21` [Example 45, 2-amino-6-(2,6-dichlorophenyl)-8-methylpyrido[2,3-d]pyrimidin-5(8H)-one] the Ki was 180 nM. `Cn1cc(-c2c(Cl)cccc2Cl)c(=O)c2cnc(Nc3ccc4c(c3)CCNC4)nc21` [Example 46, 6-(2,6-dichlorophenyl)-8-methyl-2-(1,2,3,4-tetrahydroisoquinolin-6-ylamino)pyrido[2,3-d]pyrimidin-5(8H)-one] gave a Ki of 1.1 nM. Molecule `Cn1cc(-c2c(Cl)cccc2Cl)c(=O)c2cnc(Nc3ccc4c(c3)CNCC4(C)C)nc21` [Example 47, 6-(2,6-dichlorophenyl)-2-[(4,4-dimethyl-1,2,3,4-tetrahydroisoquinolin-7-yl)amino]-8-methylpyrido[2,3-d]pyrimidin-5(8H)-one] has a Ki of 0.6 nM. Work on `Cn1cc(-c2c(Cl)cccc2Cl)c(=O)c2cnc(Nc3ccc(N4CCOCC4)cc3)nc21` [Example 48, 6-(2,6-dichlorophenyl)-8-methyl-2-{[4-(morpholin-4-yl)phenyl]amino}pyrido[2,3-d]pyrimidin-5(8H)-one] yielded a Ki of 1.7 nM. For `Cn1cc(-c2c(Cl)cccc2Cl)c(=O)c2cnc(Nc3ccc4c(c3)CNC4)nc21` [Example 49, 6-(2,6-dichlorophenyl)-2-(2,3-dihydro-1H-isoindol-5-ylamino)-8-methylpyrido[2,3-d]pyrimidin-5(8H)-one], the Ki was 0.8 nM. `CN1CCC(c2ccc(Nc3ncc4c(=O)c(-c5c(Cl)cccc5Cl)cn(C)c4n3)cc2)CC1` [Example 50, 6-(2,6-dichlorophenyl)-8-methyl-2-{[4-(1-methylpiperidin-4-yl)phenyl]amino}pyrido[2,3-d]pyrimidin-5(8H)-one] showed a Ki of 0.9 nM. `Cn1cc(-c2c(Cl)cccc2Cl)c(=O)c2cnc(Nc3ccc4c(c3)CNCC4)nc21` [Example 51, 6-(2,6-dichlorophenyl)-8-methyl-2-(1,2,3,4-tetrahydroisoquinolin-7-ylamino)pyrido[2,3-d]pyrimidin-5(8H)-one] gave a Ki of 0.4 nM. For `CN1CCc2ccc(Nc3ncc4c(=O)c(-c5c(Cl)cccc5Cl)cn(C)c4n3)cc2C1` [Example 52, 6-(2,6-dichlorophenyl)-8-methyl-2-[(2-methyl-1,2,3,4-tetrahydroisoquinolin-7-yl)amino]pyrido[2,3-d]pyrimidin-5(8H)-one], the Ki was 0.5 nM. Molecule `CN1CCc2cc(Nc3ncc4c(=O)c(-c5c(Cl)cccc5Cl)cn(C)c4n3)ccc2C1` [Example 54, 6-(2,6-dichlorophenyl)-8-methyl-2-[(2-methyl-1,2,3,4-tetrahydroisoquinolin-6-yl)amino]pyrido[2,3-d]pyrimidin-5(8H)-one] has a Ki of 0.3 nM. With `Cn1cc(-c2c(Cl)cccc2Cl)c(=O)c2cnc(Nc3ccc4c(c3)CC(N3CCCC3)C4)nc21` (stereo not shown) [Example 55, 6-(2,6-dichlorophenyl)-8-methyl-2-{[2-(pyrrolidin-1-yl)-2,3-dihydro-1H-inden-5-yl]amino}pyrido[2,3-d]pyrimidin-5(8H)-one] the Ki was 0.4 nM. `Cn1cc(-c2c(Cl)cccc2Cl)c(=O)c2cnc(Nc3ccc4c(c3)C(=O)NC4=O)nc21` [Example 56, 5-{[6-(2,6-dichlorophenyl)-8-methyl-5-oxo-5,8-dihydropyrido[2,3-d]pyrimidin-2-yl]amino}-1H-isoindole-1,3(2H)-dione] was tested, and the Ki was 27 nM. For `CN1CCN(C2Cc3ccc(Nc4ncc5c(=O)c(-c6c(Cl)cccc6Cl)cn(C)c5n4)cc3C2)CC1` (stereo not shown) [Example 57, 6-(2,6-dichlorophenyl)-8-methyl-2-{[2-(4-methylpiperazin-1-yl)-2,3-dihydro-1H-inden-5-yl]amino}pyrido[2,3-d]pyrimidin-5(8H)-one], the Ki was 0.9 nM. Molecule `Cn1cc(-c2c(Cl)cccc2Cl)c(=O)c2cnc(Nc3cc4c(s3)CCNC4)nc21` [Example 58, 6-(2,6-dichlorophenyl)-8-methyl-2-(4,5,6,7-tetrahydrothieno[3,2-c]pyridin-2-ylamino)pyrido[2,3-d]pyrimidin-5(8H)-one] has a Ki of 0.4 nM. `CN1CCN(c2ncc(Nc3ncc4c(=O)c(-c5c(Cl)cccc5Cl)cn(C)c4n3)cn2)CC1` [Example 59, 6-(2,6-dichlorophenyl)-8-methyl-2-{[2-(4-methylpiperazin-1-yl)pyrimidin-5-yl]amino}pyrido[2,3-d]pyrimidin-5(8H)-one] gave a Ki of 18 nM. Work on `CN1Cc2cc(Nc3ncc4c(=O)c(-c5c(Cl)cccc5Cl)cn(C)c4n3)ccc2C1(C)C` [Example 60, 6-(2,6-dichlorophenyl)-8-methyl-2-[(1,1,2-trimethyl-2,3-dihydro-1H-isoindol-5-yl)amino]pyrido[2,3-d]pyrimidin-5(8H)-one] yielded a Ki of 0.2 nM. `CN1CCC(Nc2ccc(Nc3ncc4c(=O)c(-c5c(Cl)cccc5Cl)cn(C)c4n3)cc2)CC1` [Example 61, 6-(2,6-dichlorophenyl)-8-methyl-2-({4-[(1-methylpiperidin-4-yl)amino]phenyl}amino)pyrido[2,3-d]pyrimidin-5(8H)-one] showed a Ki of 0.6 nM. For `CN(C)C1CCN(c2ncc(Nc3ncc4c(=O)c(-c5c(Cl)cccc5Cl)cn(C)c4n3)cn2)CC1` [Example 62, 6-(2,6-dichlorophenyl)-2-({2-[4-(dimethylamino)piperidin-1-yl]pyrimidin-5-yl}amino)-8-methylpyrido[2,3-d]pyrimidin-5(8H)-one], the Ki was 3 nM.
